In patent US10167326B2, “Alpha-fetoprotein “ring and tail” peptides” (ALBANY MEDICAL COLLEGE, priority 2010, dated 2019):
Non-standard residues stand in square brackets, D forms with d. Residues, ends and D or L forms follow the SMILES beside them. Groups on a side chain read outwards from the residue. No end group written: not given here. Hyp = O=C(O)[C@@H]1C[C@@H](O)CN1

Legend:
[1] = system: E2-stimulated immature mouse uterine growth; test: immature mouse uterine growth assay (inhibition of E2-stimulated uterine growth); type: in vivo; conditions: for inhibition of E2-stimulated uterine growth, dose response profile: over a number of doses (FIG. 6); for Inhibition ± S.E, % Mouse uterine growth Intraperitoneal: 1 μg/mouse intraperitoneally, E2-stimulated, mean±S.E. (n=5), * p<0.05 vs E2 alone
Description: Four cyclic peptides of decreasing ring size (Table 1) were synthesized and were assessed for antiestrogenic activity using the immature mouse uterine assay. Negative control mice received saline alone. Positive control mice received E2 alone. AFPep was used as a positive control peptide and cyclic Scr was used as a peptide control. Mice were injected intraperitoneally (i.p.) with each of these peptides at a dose of 1 μg/mouse. One hour later mice received 0.5 ug 17β-estradiol (E2) i.p. Twenty-two hours later uteri were dissected, weighed, and normalized to body weight. The results are reported as mean±S.E (n=5) for four independent experiments.
(§1) A ‘tail’ was attached to a nine-amino acid ring and included 1 or 2 amino acids defined as hydrophilic or hydrophobic based on the nature of their side-chains. Tails comprising the following amino acid(s): serine (S), tyrosine (Y), […], glutamic acid (E), phenylalanine-serine (FS) and tyrosine-isoleucine (YI) represent hydrophilic tails and tails comprising the following amino acid(s), phenylalanine (F), isoleucine (I) and phenylalanine-isoleucine (FI) are hydrophobic tails. All peptides were administered at a dose of 1 μg/mouse intraperitoneally or 10 μg/mouse by oral gavage. Values are presented as mean±S.E. (n=5). In culture, T47D cells were treated with each peptide at a concentration of 1 μM. Values are presented as mean±S.E (n=6). […] Wilcoxon Rank Sum Test.
(§2) All peptides were administered at a dose of 1 μg/mouse intraperitoneally or 10 μg/mouse by oral gavage. Values are presented as mean±S.E (n=5). In culture, T47D cells were treated with each peptide at a concentration of 1 μM. Values are presented as mean±S.E (n=6). […] Wilcoxon Rank Sum Test.
To evaluate peptide-induced inhibition by the peptide of the present invention of estrogen-stimulated proliferation of normal tissue, the immature mouse uterine growth assay was utilized. Briefly, 13-15 day-old Swiss/Webster female mice, 6-8 g in body weight, were distributed into treatment groups of 5 mice per group so that each group contained animals of the same range of body weight. The peptide of the invention was injected i.p., s.c., or p.o. into the mice. One hour later, estradiol (E2) or vehicle control for E2 was injected i.p. Twenty-two hours after the second injection, uteri were harvested, trimmed free of mesenteries, and immediately weighed. The uterine weights were normalized to mouse body weights to compensate for differences in body weight among litters of the same age. Experiments employed a minimum of five mice per group and the mean normalized uterine weight±SE for each group was calculated. Percent growth inhibition in a test group was calculated from normalized uterine wet weights as described below.
The ability to inhibit E2-stimulated growth of normal mouse uterus was used as a screening assay for biological activity of AFPep analogs. In general, inhibitory activity ≥20% is considered to be biologically significant. Each analog's inhibitory effect on E2-stimulated growth was compared to AFPep (a positive control) and to PGVGQ (SEQ ID NO: 51)(a negative control). PGVGQ (SEQ ID NO: 51 amino acids 478-482 of AFP) is a portion of the primary structure of AFP near to the anti-cancer active site of AFP and is comprised of amino acids (P, V, and G) that are important components of AFPep.

[2] = system: T47D human breast cancer cells; test: T47D cell proliferation assay in the presence of E2; type: cell-based; conditions: peptide 1 μM; E2-stimulated; mean±S.E (n=6); * p<0.05 vs E2 alone
Description: Anticancer activity of the cyclic peptides was also evaluated using the T47D cell proliferation assay. T47D cells were cultured on collagen-IV coated 24-well plates and treated with each of above peptides in the presence of E2. Final peptide concentrations of each peptide were 10^−6 M and final E2 concentration was 1 nM. Values are reported as mean±SEM (n=6) of four independent experiments. […] One-way ANOVA followed by Tukey's multiple comparison test. p≤0.05.
as §1, §2

[3] = system: MCF-7 human breast cancer xenograft; test: E2-supplemented MCF-7 human breast cancer xenograft assay in SCID mice; type: in vivo, mouse; conditions: E2 pellets, 10 μg s.c., 10 μg i.p. or 100 μg p.o. once daily day 1 to day 20 (FIG. 8)
From the text: To determine the effectiveness of cyclo[EKTOVNOGN] (SEQ ID NO: 33)FI as a potential cancer therapeutic agent in a clinically relevant model, we assessed the effect of cyclo[EKTOVNOGN] (SEQ ID NO: 33)FI on E2-supplemented MCF-7 human breast cancer xenograft growth using different routes of administration. Briefly, a piece of MCF-7 human breast cancer measuring approximately 2 mm in average diameter was implanted under the kidney capsule of SCID mice. Mice were supplemented with E2 pellets implanted subcutaneously, at the time of tumor implantation, for a steady state of E2 at 10^−9M. Mice were treated with 10 μg subcutaneously (s.c.), 10 μg intraperitoneally (i.p.) or 100 μg orally (p.o.) cyclo [EKTOVNOGN] (SEQ ID NO: 33) FI was administered once daily from day 1 to day 20 of the experiment. Tumor size was measured as described in materials and methods. Data is presented as mean±S.E (n=5). After 20 days of treatment, the percentage change in tumor volume for each cyclo [EKTOVNOGN] […] One-way ANOVA followed by Tukey's multiple comparison test. *p<0.01 vs. E2.
The peptides of the invention were evaluated for their ability to inhibit tumor growth in a human tumor xenograft assay. Briefly, MCF-7 human breast cancer cells were obtained from ATCC® (Rockville, Md.) and were grown in DMEM supplemented with 5% FCS, 1% non-essential amino acids, 10 ng/ml insulin, 2 mM L-glutamine, 100 units/ml penicillin, and 100 μg/ml streptomycin. MCF-7 cells from culture were solidified into a fibrin clot. The tumor-containing clots were cut into pieces about 1.5 mm in diameter and implanted under the kidney capsule of severe combined immunodeficient (ICR-SCID) mice (Taconic Farms, Germantown, N.Y.) as described in Bennett et al. (Clin. Cancer Res. 1998; 4:2877-84).
Estrogen supplementation of mice was required for the growth of MCF-7 tumors. […] Tumor size was evaluated during survival laparotomy using a dissecting microscope at the time of tumor implantation and at days 15 and 30 after tumor implantation. […]

[4] = system: Estrogen independent (ER−) MDA MB231 cells; test: MDA MB231 cell growth (MTT assay); type: cell-based, human; conditions: 10^−6M, 7 days, MTT (FIG. 9)
Description: Estrogen independent (ER^−)MDA MB231 cells were plated at 20,000 cells/well/ml in a collagen-IV coated 24-well plate. The next day, cells were treated with vehicle (0.1% ethanol), AFPep, cyclo[EKTOVNOGN] (SEQ ID NO: 33) YI, for 7 days. Each peptide was treated at 10^−6M. Cell proliferation was determined by MTT assay. Each value is the mean±S.E. (n=4) of three independent experiments.

[5] = system: T47D human breast cancer cells; test: T47D cell proliferation assay in the presence of E2; type: cell-based; conditions: different concentrations in vitro (FIG. 7)

Row | Compound | inhibition of E2-stimulated uterine growth, dose response profile [1] | Inhibition ± S.E, % T47D cell proliferation [2] | inhibition of E2-stimulated T47D human breast cancer cell growth, concentration response profile [5] | further results
1 | CC[C@H](C)[C@H](NC(=O)[C@H](Cc1ccccc1)NC(=O)C[C@@H]1NC(=O)CNC(=O)[C@@H]2C[C@@H](O)CN2C(=O)[C@H](CC(N)=O)NC(=O)[C@H](C(C)C)NC(=O)[C@@H]2C[C@@H](O)CN2C(=O)[C@H]([C@@H](C)O)NC(=O)[C@H](CCCCN)NC(=O)[C@H](CCC(=O)O)NC1=O)C(N)=O [cyclo[EKTOVNOGN]FI] (cyclo(EKT[Hyp]VN[Hyp]GD([Phe-Ile-NH2]))) | significantly inhibited E2-stimulated growth in a dose-dependent manner and maintained its effectiveness at very high doses | 66 ± 2* % | inhibited E2-stimulated T47D human breast cancer cell growth in a concentration-dependent manner, even at high concentrations | efficacy in inhibition of E2-stimulated growth compared with AFPep ([1]; in vivo and in vitro, summary statements): more effective at inhibiting E2-stimulated growth than AFPep; inhibition of MCF-7 xenograft growth (change in tumor volume) [3]: significantly different from the E2 alone group; inhibition of MCF-7 xenograft growth (change in tumor volume) ([3]; listed as cyclo [ETKOVNOGN] FI): significantly inhibited the growth of tumor xenografts; effect on growth of ER− MDA MB 231 cells in culture [4]: no effect
2 | CC[C@H](C)[C@H](NC(=O)C[C@@H]1NC(=O)CNC(=O)[C@@H]2C[C@@H](O)CN2C(=O)[C@H](CC(N)=O)NC(=O)[C@H](C(C)C)NC(=O)[C@@H]2C[C@@H](O)CN2C(=O)[C@H]([C@@H](C)O)NC(=O)[C@H](CCCCN)NC(=O)[C@H](CCC(=O)O)NC1=O)C(N)=O [cyclo[EKTOVNOGN]I] (cyclo(EKT[Hyp]VN[Hyp]GD([Ile-NH2]))) |  | 55 ± 6* % |  | 
3 | CC[C@H](C)[C@H](NC(=O)[C@H](Cc1ccc(O)cc1)NC(=O)C[C@@H]1NC(=O)CNC(=O)[C@@H]2C[C@@H](O)CN2C(=O)[C@H](CC(N)=O)NC(=O)[C@H](C(C)C)NC(=O)[C@@H]2C[C@@H](O)CN2C(=O)[C@H]([C@@H](C)O)NC(=O)[C@H](CCCCN)NC(=O)[C@H](CCC(=O)O)NC1=O)C(N)=O [cyclo[EKTOVNOGN]YI] (cyclo(EKT[Hyp]VN[Hyp]GD([Tyr-Ile-NH2]))) | very little antiestrogenic activity | 24 ± 3% | ineffective | 
4 | TOVNO (T[Hyp]VN[Hyp]) | undesirable |  | undesirable | 
5 | TOVNOGNEK (T[Hyp]VN[Hyp]GNEK) | superior dose response profile |  | superior dose response profile | inhibition of MCF-7 xenograft growth (change in tumor volume) [3]: efficacy equivalent to AFPep
6 | cyclo[EKTOVGOGN]K (EKT[Hyp]VG[Hyp]GNK; bridge (positions not given here); not fully specified (bridges); printed as cyclo[EKTOVGOGN]K; also: cyclic ring with lysine tail, ring closure and tail attachment not given here) |  |  |  | Inhibition ± S.E, % Mouse uterine growth Intraperitoneal [1]: 7 ± 3%
7 | cyclo[EKTOVNOGN]FS |  |  |  | Inhibition ± S.E, % Mouse uterine growth Intraperitoneal [1]: 7 ± 3%
